Assay results taken from paper PMC4189421, “Induction of Oligodendrocyte Differentiation and In Vitro Myelination by Inhibition of Rho-Associated Kinase” (ASN NEURO, 2014).

Tests used:
rat mixed glial OPCs = assay: Myelin protein expression in rat mixed glia-derived OPCs (qPCR, MBP ELISA); type: cell-based
Procedure: Rat postnatal OPCs were obtained as described elsewhere according to the original procedure of [McCarthy and […] (1980)]. In brief, postnatal Day 1 rat pups were sacrificed, and cerebral cortices dissected and mechanically dissociated in medium composed of DMEM, 10% heat inactivated fetal bovine serum, and 5 μg/ml penicillin/streptomycin. Dissociated cells were plated and maintained in 75-cm^2 culture flasks for 10 days, replenishing with fresh media at Days 3 and 7. At Day 10, the flasks were shaken on a heated (37°C) shaker for 1 hr at 110 rpm to separate loosely attached microglial cells. The medium was replenished, and the cells incubated for the remainder of the day. To dislodge OPCs from the astrocyte monolayer, flasks were shaken overnight (210 rpm, 37°C). […] Cells were then plated on PDL-coated tissue culture plastic and treated with test compounds. […] The results are presented as specific mRNA expression relative to either β-actin or β-tubulin, used as internal controls as indicated. OPCs isolated from rat mixed glial cultures are known to mature readily in the absence of mitogens achieving a premyelinating OL stage as determined by the expression of the cell surface sulfatide O4, and the myelin proteins MBP and PLP among others ([Armstrong, 1998]; [Barbarese & Pfeiffer, 1981]; [[…], 1999]; [Jung-[…], Schumacher, Robel, & Baulieu, 1996]; [Konola, Tyler, Yamamura, & Lees, 1991]). They also display marked morphological changes, progressing from bipolar to multibranched cells generating membranous structures, and probably represent a later developmental stage than Nph-OPC. In rat mixed glial OPCs, we measured myelin protein expression at the RNA level by qPCR and MBP production by ELISA (MBL International, Woburn, MA).

[1] = tested on: mouse neurosphere-derived oligodendrocyte precursor cells (Nph-OPCs); assay: Morphology-based OPC differentiation assay (branches, outgrowth; high-content imaging); type: cell-based; conditions: mNph-OPC, 72 hr treatment, dose-response
Procedure: Neurospheres (Nph) were prepared from embryos at 14.5 days of gestation obtained from timed pregnant females of C57/Bl6 mice, as previously described ([Kornblum, Yanni, Easterday, & Seroogy, 2000]; [Pedraza, Monk, Lei, Hao, & Macklin, 2008]). In brief, after separation of meninges and cerebellum, cerebrum tissue was mechanically triturated with a 1-ml micropipette until total tissue dissociation was achieved, filtered through a 70 -µm cell strainer (Fisher Scientific, Pittsburgh, PA), and plated in 25-cm^2 plastic culture flasks (2 brains/flask). Nph proliferation media (NPM) consisted of Dulbecco’s Modified Eagle Medium (DMEM)/F12, B27 neuronal supplement (Gibco, Baltimore, MD) and 10 ng/ml […] (EGF; Sigma, St. Louis, MO). After 48 to 72 hr, floating Nphs were passaged at a 1 : 1 ratio into 75-cm^2 culture flasks. After a further 48 to 72 hr, they were passaged into 150-cm^2 flasks. Subsequent passages were performed every 3 to 4 days at a ratio of 1 : 2 or 1 : 3 in the same media, and Nph were used to generate OPCs for no more than 12 passages.
OPCs were generated by chemical disaggregation of Nph with a mouse neural progenitor dissociation kit following the manufacturer instructions (NeuroCult, StemCell Technologies, AB, Canada). The single-cell suspension was then filtered through a 40 -µm cell strainer and plated on poly-D-lysine (PDL)-coated plates. […]
To determine the effects of ROCK inhibition on OPCs, we developed a high-content image morphological analysis of OPC differentiation using mouse embryonic neural progenitor-derived OPCs (Nph-OPCs). […] Four images per well were analyzed using a neurite outgrowth module (Molecular Devices, Sunnyvale, CA). We quantified the number of branches and total outgrowth per cell (Figure 1). […] Additionally, nuclear staining by Hoechst allowed the accurate association of branches and processes to their corresponding cell bodies and permitted quantification of total cell numbers in each well.

[2] = tested on: MYPT1 phosphorylation in mNph-OPC; assay: MYPT1 phosphorylation (sandwich ELISA, western blot) as ROCK target engagement; conditions: 100 µM, 4-hr mNph-OPC treatment
Procedure: Tris-glycine acrylamide-bysacrylamide gradient gel electrophoresis was performed as follows: After washing the cells with ice-cold PBS, protein lysates were made by adding 50 µl of PhosphoSafe extraction reagent (EMD Millipore) supplemented with antiprotease cocktail (cOmplete; Roche, Branford, CT) onto each 100-mm^2 cell culture plate. After detaching the cells with the help of a cell scraper and disrupting cell membranes by sonication, the protein extracts were centrifuged (10,000 g, 10 min, 4℃) and the supernatants separated. Protein content was measured by the BCA protein determination method (Biorad, Hercules, CA), and 30 µg of total protein was mixed with SDS sample buffer (Laemmli) supplemented with 1% β-mercaptoethanol. After heating the samples to 70℃ for 10 min, they were loaded onto 4% to 20% acryl-bysacrylamide gradient gels, and electrophoresis was carried out at 120 volts with constant amperage.
Resolved proteins were then transferred onto nitrocellulose membranes using the iBlot methodology and device (Life technologies). […] Secondary detection was performed using Li-Cor IRDye secondary anti-mouse and anti-rabbit antibodies, and near-infrared signal was detected by Li-Cor’s Odyssey imaging system.
We assessed MYPT1 phosphorylation in Nph-OPCs treated for 4 hr with ROCK inhibitors in a dose-response experiment and using a sandwich ELISA as a measuring method (MBL International).

mouse Nph-OPCs = assay: Cell proliferation as number of Hoechst-labeled nuclei; type: cell-based; conditions: 1 µM; n = 3 in triplicate wells; DMSO: 522 ± 126
Description: To determine the effects of ROCK inhibition on OPCs, we developed a high-content image morphological analysis of OPC differentiation using mouse embryonic neural progenitor-derived OPCs (Nph-OPCs). Neural progenitors grow as nonadherent spheroids known as neurospheres (Nph; [Chojnacki & Weiss, 2008]; [Tropepe et al., 1999]), which are considered to be a mixed population of neural stem cells and progenitors of the CNS ([Rao, 1999]; [Zhou & Chiang, 1998]). These cells have been previously used in multiple published studies for the generation of high-yield, high-purity cultures of OPCs from rodents ([Calaora et al., 2001]; [[…] al., 1997]; [Pedraza et al., 2008]). After 24 hr of plating on PDL-coated tissue culture plastic, Nph-OPCs were treated as indicated with differentiation stimuli and further incubated for 72 hr. […] Four images per well were analyzed using a neurite outgrowth module (Molecular Devices, Sunnyvale, CA). We quantified the number of branches and total outgrowth per cell (Figure 1). […] Additionally, nuclear staining by Hoechst allowed the accurate association of branches and processes to their corresponding cell bodies and permitted quantification of total cell numbers in each well. […]

ROCKI = target: T1, ROCKI (Homo sapiens, UniProt Q13464); conditions: read-out: Activity, IC50 ROCKI, Table 1, ref Goodman et al., 2007, Nichols et al., 2009, heading: Activity; cited from earlier work
T1 construct: purchased EMD Millipore

ROCKII = target: T2, ROCKII (Homo sapiens, UniProt O75116); conditions: read-out: Activity, IC50 ROCKII, Table 1, ref Goodman et al., 2007, Nichols et al., 2009, heading: Activity; cited from earlier work
T2 construct: purchased EMD Millipore
T2 sequence (O75116 whole entry, species assumed): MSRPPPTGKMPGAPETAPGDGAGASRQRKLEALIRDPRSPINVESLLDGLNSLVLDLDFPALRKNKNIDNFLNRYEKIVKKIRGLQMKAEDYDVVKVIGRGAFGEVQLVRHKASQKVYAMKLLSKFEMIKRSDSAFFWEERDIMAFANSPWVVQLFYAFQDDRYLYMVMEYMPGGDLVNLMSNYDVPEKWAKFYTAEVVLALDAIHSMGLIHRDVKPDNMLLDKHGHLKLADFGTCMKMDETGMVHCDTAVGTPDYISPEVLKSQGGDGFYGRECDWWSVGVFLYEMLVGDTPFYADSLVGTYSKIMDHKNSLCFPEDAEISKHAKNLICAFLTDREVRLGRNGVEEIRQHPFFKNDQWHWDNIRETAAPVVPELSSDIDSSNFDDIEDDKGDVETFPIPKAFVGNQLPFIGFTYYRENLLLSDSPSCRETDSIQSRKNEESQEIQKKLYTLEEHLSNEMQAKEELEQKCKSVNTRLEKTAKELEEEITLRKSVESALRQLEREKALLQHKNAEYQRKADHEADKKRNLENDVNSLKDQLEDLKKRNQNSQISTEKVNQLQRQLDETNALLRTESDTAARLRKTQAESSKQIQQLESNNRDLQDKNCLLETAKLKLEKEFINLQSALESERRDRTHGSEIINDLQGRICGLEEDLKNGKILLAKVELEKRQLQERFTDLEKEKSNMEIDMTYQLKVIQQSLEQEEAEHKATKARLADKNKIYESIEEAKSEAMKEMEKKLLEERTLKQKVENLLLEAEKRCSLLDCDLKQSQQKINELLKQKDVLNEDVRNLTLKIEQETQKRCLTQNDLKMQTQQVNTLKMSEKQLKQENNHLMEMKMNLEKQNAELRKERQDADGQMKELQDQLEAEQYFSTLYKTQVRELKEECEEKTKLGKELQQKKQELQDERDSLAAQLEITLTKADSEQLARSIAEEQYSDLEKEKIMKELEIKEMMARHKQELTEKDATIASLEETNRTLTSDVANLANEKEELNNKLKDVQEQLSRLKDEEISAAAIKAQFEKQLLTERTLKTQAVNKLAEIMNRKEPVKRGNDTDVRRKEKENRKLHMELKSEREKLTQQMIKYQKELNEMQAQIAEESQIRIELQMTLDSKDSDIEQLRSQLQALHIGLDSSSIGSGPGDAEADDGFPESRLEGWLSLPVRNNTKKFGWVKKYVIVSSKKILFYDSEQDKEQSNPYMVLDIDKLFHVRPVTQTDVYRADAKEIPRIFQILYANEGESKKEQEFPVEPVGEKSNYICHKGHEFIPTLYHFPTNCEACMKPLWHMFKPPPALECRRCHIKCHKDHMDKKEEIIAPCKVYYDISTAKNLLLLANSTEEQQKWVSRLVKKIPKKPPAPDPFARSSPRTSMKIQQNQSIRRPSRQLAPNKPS

T1 sequence (Q13464 whole entry, species assumed): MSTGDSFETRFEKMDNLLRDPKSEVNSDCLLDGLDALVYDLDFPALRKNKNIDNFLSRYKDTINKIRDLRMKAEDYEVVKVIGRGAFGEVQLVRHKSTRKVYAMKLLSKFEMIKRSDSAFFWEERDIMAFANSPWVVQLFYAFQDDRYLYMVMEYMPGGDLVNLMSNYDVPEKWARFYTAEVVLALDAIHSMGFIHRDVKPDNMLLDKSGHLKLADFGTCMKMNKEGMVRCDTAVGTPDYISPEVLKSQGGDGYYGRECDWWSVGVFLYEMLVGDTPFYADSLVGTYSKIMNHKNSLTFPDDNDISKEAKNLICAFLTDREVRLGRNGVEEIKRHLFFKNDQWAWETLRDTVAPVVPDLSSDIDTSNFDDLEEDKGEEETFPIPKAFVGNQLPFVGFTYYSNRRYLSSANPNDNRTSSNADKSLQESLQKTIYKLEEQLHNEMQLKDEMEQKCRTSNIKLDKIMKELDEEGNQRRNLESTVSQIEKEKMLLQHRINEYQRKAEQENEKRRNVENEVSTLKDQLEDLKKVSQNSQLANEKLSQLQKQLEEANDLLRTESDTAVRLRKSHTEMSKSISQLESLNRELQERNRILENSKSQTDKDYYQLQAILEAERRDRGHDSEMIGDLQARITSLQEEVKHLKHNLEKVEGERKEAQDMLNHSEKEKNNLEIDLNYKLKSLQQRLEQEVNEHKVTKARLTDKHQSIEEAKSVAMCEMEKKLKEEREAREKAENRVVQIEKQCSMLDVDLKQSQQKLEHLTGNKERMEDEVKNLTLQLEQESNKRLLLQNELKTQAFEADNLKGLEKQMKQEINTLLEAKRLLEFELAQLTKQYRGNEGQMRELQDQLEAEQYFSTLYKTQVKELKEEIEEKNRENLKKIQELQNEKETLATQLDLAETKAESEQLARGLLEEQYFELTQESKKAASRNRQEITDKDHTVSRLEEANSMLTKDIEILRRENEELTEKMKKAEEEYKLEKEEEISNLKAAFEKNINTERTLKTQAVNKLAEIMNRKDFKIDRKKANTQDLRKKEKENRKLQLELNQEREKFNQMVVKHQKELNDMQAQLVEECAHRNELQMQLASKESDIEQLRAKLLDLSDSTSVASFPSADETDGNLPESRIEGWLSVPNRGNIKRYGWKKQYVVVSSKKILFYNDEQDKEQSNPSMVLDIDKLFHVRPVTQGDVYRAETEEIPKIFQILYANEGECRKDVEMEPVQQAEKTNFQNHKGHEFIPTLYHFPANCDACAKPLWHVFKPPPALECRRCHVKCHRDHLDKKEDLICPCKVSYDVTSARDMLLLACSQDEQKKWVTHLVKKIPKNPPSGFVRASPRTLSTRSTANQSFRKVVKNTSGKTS

Structure (SMILES) | Expression of MBP, PLP, and MOG mRNAs (qPCR) (rat mixed glial OPCs; 3 days maturation +4 days treatment, concentrations as low as 0.1 µM) | MBP at the protein level (ELISA) (rat mixed glial OPCs; treatments at 24 hr and 72 hr after plating) | OPC differentiation effect (processes and branches) [1] | Decrease of MYPT1 phosphorylation (ELISA) [2] | Number of Hoechst-labeled nuclei (mouse Nph-OPCs) | IC50 ([1]; Mus musculus, Oligodendrocyte precursor cell, read-out: IC50, generation of branches in OPC differentiation assay) | IC50 (ROCKI) | IC50 (ROCKII)
O=S(=O)(c1cccc2cnccc12)N1CCCNCC1 [Fasudil] | significant increase | increased expression | minor differentiation effect | 60% | 598 ± 21 cells/well |  |  | 
CC1=C(C(=O)Nc2cc3cn[nH]c3cc2F)C(c2ccc(C(F)(F)F)cc2)CC(=O)N1 (centres unmarked) [GSK 429286, 4-[4-(trifluoromethyl)phenyl]-N-(6-fluoro-1H-indazol-5-yl)-2-methyl-6-oxo-1,4,5,6-tetrahydro-3-pyridinecarboxamide] |  |  |  |  |  | 2300 nM | 14 nM | 48 nM
